target: EBI2 (Homo sapiens, UniProt P32249); assay: Cell-based luminescent assay (EBI2 modulation); conditions: cell-based luminescence; 7a,25-OHC final assay concentration 80 nM; 60 minutes incubation; read-out: IC50
Method in brief: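 Cells plated overnight at 37° C, then exposed to compound at 4-5 uM final with 80 nM 7a,25-OHC agonist for 60 min at 37° C. Luminescence read after 60 min detection at 25° C in the dark; values normalized to neutral and stimulator controls and plate-pattern corrected.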

Chain of EBI2 (P32249 whole entry): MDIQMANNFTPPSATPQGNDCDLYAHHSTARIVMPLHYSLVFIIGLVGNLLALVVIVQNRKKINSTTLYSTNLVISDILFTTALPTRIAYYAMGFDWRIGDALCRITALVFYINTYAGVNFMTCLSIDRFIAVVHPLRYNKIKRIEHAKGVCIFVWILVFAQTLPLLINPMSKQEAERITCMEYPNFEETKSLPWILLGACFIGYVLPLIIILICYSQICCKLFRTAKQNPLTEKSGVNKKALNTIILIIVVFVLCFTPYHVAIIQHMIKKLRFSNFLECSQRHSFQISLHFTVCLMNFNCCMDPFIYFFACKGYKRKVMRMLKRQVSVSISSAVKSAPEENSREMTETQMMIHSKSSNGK

First: O=C(/C=C/c1ccccc1C(F)(F)F)N1CCN(S(=O)(=O)c2ccc(Br)cc2)CC1 [Compound C277, (2E)-1-{4-[(4-bromophenyl)sulfonyl]piperazinyl}-3-[2-(trifluoromethyl)phenyl]prop-2-en-1-one]
Second: COc1cccc(S(=O)(=O)N2CCN(C(=O)/C=C/c3ccc(F)cc3)CC2)c1 [Compound C314, (2E)-3-(4-fluorophenyl)-1-{4-[(3-methoxyphenyl)sulfonyl]piperazinyl}prop-2-en-1-one]
The IC50 of the first is higher: 100 to 500 nM for the first, < 100 nM for the second. The second is the more potent here.

O=C(c1cc2ccccn2n1)N1CCN(C(=O)c2cc3cc(Cl)ccc3[nH]2)CC1 [Compound C278, 5-chloroindol-2-yl 4-(8-hydropyrazolo[1,5-a]pyridin-2-ylcarbonyl)piperazinyl ketone] and O=C(c1cn2ccccc2n1)N1CCN(C(=O)c2cc3cc(Cl)ccc3[nH]2)CC1 [Compound C279, 5-chloroindol-2-yl 4-(4-hydroimidazo[1,2-a]pyridin-2-ylcarbonyl)piperazinyl ketone] fall in the same range of IC50: 100 to 500 nM for the first, 100 to 500 nM for the second.

Compared with COc1cc2cc(C(=O)N3CCN(C(c4ccccc4)c4ccccc4)CC3)[nH]c2cc1OC [Compound C280, 5,6-dimethoxyindol-2-yl 4-(diphenylmethyl)piperazinyl ketone], COc1ccc2cc(C(=O)N3CCN(C(c4ccccc4)c4ccccc4)CC3)[nH]c2c1 [Compound C304, 4-(diphenylmethyl)piperazinyl 6-methoxyindol-2-yl ketone] is lower in IC50: 100 to 500 nM for the first, < 100 nM for the second.

O=C(C#Cc1cccc(Cl)c1Cl)N1CCN(Cc2ccc(C(F)(F)F)cc2)CC1 [Compound C281, 3-(2,3-dichlorophenyl)-1-(4-{[4-(trifluoromethyl)phenyl]methyl}piperazinyl)prop-2-yn-1-one] and O=C(C#Cc1ccc(Cl)c(Cl)c1)N1CCN(Cc2ccc(F)cc2)CC1 [Compound C284, 3-(3,4-dichlorophenyl)-1-{4-[(4-fluorophenyl)methyl]piperazinyl}prop-2-yn-1-one] fall in the same range of IC50: 100 to 500 nM for the first, 100 to 500 nM for the second.

NC(=O)c1ccc(C(=O)N2CCN(C(=O)c3cc4cc(Cl)ccc4[nH]3)CC2)cc1 [Compound C282, 4-({4-[(5-chloroindol-2-yl)carbonyl]piperazinyl}carbonyl)benzamide] and O=C(c1cc2cc(Cl)ccc2[nH]1)N1CCN(C(=O)c2cccnc2Cl)CC1 [Compound C285, 4-[(2-chloro(3-pyridyl))carbonyl]piperazinyl 5-chloroindol-2-yl ketone] fall in the same range of IC50: 100 to 500 nM for the first, 100 to 500 nM for the second.

O=C(c1ccc2nc(C(F)F)[nH]c2c1)N1CCN(C(c2ccccc2)c2ccccc2)CC1 [Compound C283, 2-(difluoromethyl)benzimidazol-5-yl 4-(diphenylmethyl)piperazinyl ketone] and O=C(c1ccc2nc(C(F)(F)F)[nH]c2c1)N1CCN(C(c2ccccc2)c2ccccc2)CC1 [Compound C299, 4-(diphenylmethyl)piperazinyl 2-(trifluoromethyl)benzimidazol-5-yl ketone] fall in the same range of IC50: 100 to 500 nM for the first, 100 to 500 nM for the second.

Cn1c(C(=O)N2CCN(C(=O)OC(C)(C)C)CC2)cc2ccccc21 [Compound C286, tert-butyl 4-[(1-methylindol-2-yl)carbonyl]piperazinecarboxylate] and O=C(c1cc2cc(Cl)ccc2[nH]1)N1CCN(C(=O)c2nc3ccccc3[nH]2)CC1 [Compound C288, 4-(benzimidazol-2-ylcarbonyl)piperazinyl 5-chloroindol-2-yl ketone] fall in the same range of IC50: 100 to 500 nM for the first, 100 to 500 nM for the second.

First: O=C(C#Cc1ccc(F)cc1)N1CCN(C(=O)c2ccc(F)cc2C(F)(F)F)CC1 [Compound C287, 3-(4-fluorophenyl)-1-(4-{[4-fluoro-2-(trifluoromethyl)phenyl]carbonyl}piperazinyl)prop-2-yn-1-one]
Second: O=C(C#Cc1cccc(Cl)c1)N1CCN(Cc2ccc(F)cc2C(F)(F)F)CC1 [Compound C302, 3-(3-chlorophenyl)-1-(4-{[4-fluoro-2-(trifluoromethyl)phenyl]methyl}piperazinyl)prop-2-yn-1-one]
The IC50 of the first is higher: 100 to 500 nM for the first, < 100 nM for the second. The second is the more potent here.

Compared with O=C(c1cc2cc(Cl)ccc2[nH]1)N1CCC(Oc2ccccn2)CC1 [Compound C289, 5-chloroindol-2-yl 4-(2-pyridyloxy)piperidyl ketone], O=C(c1cc2cc(Cl)ccc2[nH]1)N1CCC(Oc2ccc(F)cc2)CC1 [Compound C315, 5-chloroindol-2-yl 4-(4-fluorophenoxy)piperidyl ketone] is lower in IC50: 100 to 500 nM for the first, < 100 nM for the second.

First: O=C(c1csc2ccccc12)N1CCN(C(c2ccccc2)c2ccccc2)CC1 [Compound C290, benzo[b]thiophen-3-yl 4-(diphenylmethyl)piperazinyl ketone]
Second: O=C(/C=C/c1ccccc1Cl)N1CCN(C(c2ccccc2)c2ccccc2)CC1 [Compound C320, (2E)-1-[4-(diphenylmethyl)piperazinyl]-3-(2-chlorophenyl)prop-2-en-1-one]
The IC50 of the first is higher: 100 to 500 nM for the first, < 100 nM for the second.

First: O=C(c1ccc(C(F)(F)F)cc1)N1CCN(C(=O)c2cc3ccc(F)cc3[nH]2)CC1 [Compound C292, 6-fluoroindol-2-yl 4-{[4-(trifluoromethyl)phenyl]carbonyl}piperazinyl ketone]
Second: O=C(c1ccc(-c2nnn[nH]2)cc1)N1CCN(C(=O)c2cc3ccc(Br)cc3[nH]2)CC1 [Compound C310, 6-bromoindol-2-yl 4-[(4-(1H-1,2,3,4-tetraazol-5-yl)phenyl)carbonyl]piperazinyl ketone]
The IC50 of the first is higher: 100 to 500 nM for the first, < 100 nM for the second. The second is the more potent here.

Compared with O=C(c1cc2ccc(Br)cc2[nH]1)N1CCN(Cc2ccc(F)cc2)CC1 [Compound C293, 6-bromoindol-2-yl 4-[(4-fluorophenyl)methyl]piperazinyl ketone], O=C(c1cc2cc(Cl)ccc2[nH]1)N1CCN(Cc2ccc(F)cc2)CC1 [Compound C319, 5-chloroindol-2-yl 4-[(4-fluorophenyl)methyl]piperazinyl ketone] is lower in IC50: 100 to 500 nM for the first, < 100 nM for the second.

First: O=C(C#Cc1cc(F)cc(F)c1)N1CCN(Cc2ccc(Cl)cc2)CC1 [Compound C294, 3-(3,5-difluorophenyl)-1-{4-[(4-chlorophenyl)methyl]piperazinyl}prop-2-yn-1-one]
Second: O=C(C#Cc1cccc(Cl)c1)N1CCN(Cc2ccc(Cl)cc2)CC1 [Compound C316, 3-(3-chlorophenyl)-1-{4-[(4-chlorophenyl)methyl]piperazinyl}prop-2-yn-1-one]
The IC50 of the first is higher: 100 to 500 nM for the first, < 100 nM for the second.

First: CCN1CCN(C(=O)c2cc3cc(Cl)ccc3[nH]2)CC1 [Compound C295, 5-chloroindol-2-yl 4-ethylpiperazinyl ketone]
Second: COC(=O)c1ccc(CN2CCN(C(=O)c3cc4cc(Cl)ccc4[nH]3)CC2)cc1 [Compound C324, methyl 4-({4-[(5-chloroindol-2-yl)carbonyl]piperazinyl}methyl)benzoate]
The IC50 of the first is higher: 100 to 500 nM for the first, < 100 nM for the second.

First: O=C(c1ccc2nc[nH]c2c1)N1CCN(C(c2ccccc2)c2ccccc2)CC1 [Compound C296, benzimidazol-5-yl 4-(diphenylmethyl)piperazinyl ketone]
Second: S=C(c1cnc2ccccc2c1)N1CCN(C(c2ccccc2)c2ccccc2)CC1 [Compound C311, [4-(diphenylmethyl)piperazinyl]-3-quinolylmethane-1-thione]
The IC50 of the first is higher: 100 to 500 nM for the first, < 100 nM for the second.

O=C(C=Cc1ccc2c(c1)OCO2)N1CCN(Cc2ccc(Cl)cc2)CC1 [Compound C297, 3-(2H-benzo[3,4-d]1,3-dioxolan-5-yl)-1-{4-[(4-chlorophenyl)methyl]piperazinyl}prop-2-en-1-one] and O=C(C=Cc1ccc2c(c1)OCO2)N1CCN(Cc2ccc(Br)cc2)CC1 [Compound C298, 3-(2H-benzo[3,4-d]1,3-dioxolan-5-yl)-1-{4-[(4-bromophenyl)methyl]piperazinyl}prop-2-en-1-one] fall in the same range of IC50: 100 to 500 nM for the first, 100 to 500 nM for the second.

O=C(/C=C/c1ccc(Cl)cc1F)N1CCN(C(=O)c2cc3cc(Cl)ccc3[nH]2)CC1 [Compound C300, (2E)-3-(4-chloro-2-fluorophenyl)-1-{4-[(5-chloroindol-2-yl)carbonyl]piperazinyl}prop-2-en-1-one] and O=C(c1cc2cc(Cl)ccc2[nH]1)N1CCC(Oc2ccc(Cl)cc2)CC1 [Compound C317, 5-chloroindol-2-yl 4-(4-chlorophenoxy)piperidyl ketone] cannot be ordered by IC50: < 100 nM for the first, < 100 nM for the second.

O=C(c1ccc2cc3ccccc3cc2c1)N1CCN(C(c2ccccc2)c2ccccc2)CC1 [Compound C301, 2-anthryl 4-(diphenylmethyl)piperazinyl ketone] and Nc1ccc(/C=C/C(=O)N2CCN(C(c3ccccc3)c3ccccc3)CC2)cc1 [Compound C305, (2E)-3-(4-aminophenyl)-1-[4-(diphenylmethyl)piperazinyl]prop-2-en-1-one] cannot be ordered by IC50: < 100 nM for the first, < 100 nM for the second.

CCOc1ccc(/C=C/C(=O)N2CCN(S(=O)(=O)c3ccc(C(C)=O)cc3)CC2)cc1 [Compound C307, 4-({4-[(2E)-3-(4-ethoxyphenyl)prop-2-enoyl]piperazinyl}sulfonyl)-1-acetylbenzene] and O=C(/C=C/c1ccc(F)cc1)N1CCN(S(=O)(=O)Cc2ccccc2)CC1 [Compound C323, (2E)-3-(4-fluorophenyl)-1-{4-[benzylsulfonyl]piperazinyl}prop-2-en-1-one] cannot be ordered by IC50: < 100 nM for the first, < 100 nM for the second.

O=C(/C=C/c1ccccc1)N1CCN(Cc2cccc3ccccc23)CC1 [Compound C308, (2E)-1-[4-(naphthylmethyl)piperazinyl]-3-phenylprop-2-en-1-one] and CCCCN1CCN(C(=O)/C=C/c2ccccc2)CC1 [Compound C312, (2E)-1-(4-butylpiperazinyl)-3-phenylprop-2-en-1-one] cannot be ordered by IC50: < 100 nM for the first, < 100 nM for the second.

O=C(C#Cc1ccccc1C(F)(F)F)N1CCN(C(=O)c2ccc(Cl)cc2)CC1 [Compound C309, 1-{4-[(4-chlorophenyl)carbonyl]piperazinyl}-3-[2-(trifluoromethyl)phenyl]prop-2-yn-1-one] and Cc1ccc(NC2CCN(C(=O)c3cc4cc(Cl)ccc4[nH]3)CC2)cc1C [Compound C322, 4-[(3,4-dimethylphenyl)amino]piperidyl 5-chloroindol-2-yl ketone] cannot be ordered by IC50: < 100 nM for the first, < 100 nM for the second.

Source: patent US9776979B2, “EBI2 modulators” (Sanford-Burnham Medical Research Institute, priority 2013, dated 2017)
